Data published in patent US20110053897A1 (IRM LLC, priority 2009, published 2011).

What follows are compounds tested against T1, Syk kinase (Homo sapiens, UniProt P43405) (assay: Syk kinase inhibition, Caliper LabChip off-chip mobility-shift kinase assay). Settings: Caliper LabChip assay; read-out: Syk Enzyme IC50.
T1 construct: purchased
Assay type: biochemical
Summary of the method: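 Purified Syk pre-incubated 15 min with compound in 100 mM HEPES pH 7.5, 1 mM DTT, 10 mM MgCl2 or MnCl2, 0.002% Brij-35, then 1.5 μM fluorescein peptide and ATP at apparent KM added; 1–1.5 h at room temperature, 4% DMSO, EDTA stop. Microfluidic mobility-shift product/substrate conversion gave % inhibition; IC50 from 12-point series (10–0.00003 μM) by 4-parameter fit.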

Going from `CC(C)(C)Nc1nc(Nc2cc(-c3ccccn3)ccn2)cc2ccn(CCO)c(=O)c12` [compound 841] to `CC(C)(C)Nc1nc(Nc2cc(C(F)(F)CO)ccn2)cc2ccn(CCO)c(=O)c12` [compound 871], the IC50 falls from 0.291 µM to under 0.00127 µM. The second is the more potent here.

Compared with `CC(C)(C)Nc1nc(-c2cnc(N)nc2)cc2c(Cl)cn(CCO)c(=O)c12` [compound 666], `CC(C)(C)Nc1nc(Nc2ccc(C#N)cn2)cc2ccn(CCO)c(=O)c12` [compound 697] is 7.4-fold higher in IC50: 0.028 µM for the first, 0.208 µM for the second. The first is the more potent here.

First: CC(C)(C)Nc1nc(Nc2cnccn2)cc2ccn(CCCO)c(=O)c12 [compound 1034]
Second: CCn1ccc2cc(Nc3cnccn3)nc(NC3(CO)CC3)c2c1=O [compound 797]
The IC50 of the first is 8.8-fold lower: 0.012 µM for the first, 0.106 µM for the second. The first is the more potent here.

`[2H]C([2H])([2H])n1ccc2cc(Nc3cc(C)ccn3)nc(N[C@H]3CC[C@H](O)CC3)c2c1=O` [compound 983] and `[2H]C([2H])([2H])n1ccc2cc(Nc3cnccn3)nc(N[C@@H](C)CO)c2c1=O` [compound 1050] are within 1.5-fold of each other in IC50: 0.051 µM for the first, 0.0457 µM for the second.

Going from `CCn1ccc2cc(Nc3cnccn3)nc(NC3CC=C(C)CC3)c2c1=O` (centres unmarked) [compound 955] to `CCn1ccc2cc(Nc3cnccn3)nc(Nc3ccc(C(=O)NCCO)cc3)c2c1=O` [compound 831], the IC50 falls from 0.376 µM to 0.213 µM (1.8-fold).

Going from `[2H]C([2H])([2H])n1ccc2cc(Nc3cc(C)c(F)cn3)nc(NC(C)(C)CO)c2c1=O` [compound 1049] to `CCn1ccc2cc(Nc3cc(C)ccn3)nc(N[C@H](CO)C(C)(C)C)c2c1=O` [compound 806], the IC50 rises from 0.0899 µM to 0.568 µM (6.3-fold). The first is the more potent here.

`CC(C)(C)Nc1nc(Nc2cc(CN3CCCCC3)ccn2)cc2ccn(CCO)c(=O)c12` [compound 604] and `C/C(=N\OCCN(C)C)c1ccnc(Nc2cc3ccn(CCO)c(=O)c3c(NC(C)(C)C)n2)c1` [compound 686] are within 1.5-fold of each other in IC50: 0.251 µM for the first, 0.246 µM for the second.

For `Nc1ncc(-c2cc3ccn(C4COC4)c(=O)c3c(NC3CCC3)n2)cn1` [compound 772], the IC50 was 0.025 µM.

Same assay, conditions: read-out: Syk Enzyme IC50

First: COc1cncc(-c2cc3cc[nH]c(=O)c3c(Nc3ccc(C4CCN(C(=O)[C@@H](C)OC)CC4)c(C)c3)n2)n1 [compound 57]
Second: COc1cncc(-c2cc3cc[nH]c(=O)c3c(Nc3ccc(C4CCN(CCO)CC4)c(C)c3)n2)n1 [compound 143]
The IC50 of the first is 9.4-fold higher: 0.047 µM for the first, 0.005 µM for the second.

`[2H]C([2H])([2H])n1ccc2cc(Nc3cc(Cl)ccn3)nc(NC3CC3)c2c1=O` [compound 519] and `CCn1ccc2cc(Nc3cc(Cl)ccn3)nc(NC(C)C)c2c1=O` [compound 305] are within 1.5-fold of each other in IC50: 0.302 µM for the first, 0.257 µM for the second.

Going from `O=c1[nH]ccc2cc(Nc3ccccn3)nc(NCC3CC3)c12` [compound 291] to `C[C@@H](CO)Nc1nc(Nc2ccccn2)cc2cc[nH]c(=O)c12` [compound 298], the IC50 falls from 0.312 µM to 0.155 µM (2-fold).

First: CCN1CCN(CCc2ccc(Nc3nc(-c4cnc(OC)nc4)cc4c(F)c[nH]c(=O)c34)cc2)CC1 [compound 439]
Second: COc1ncc(-c2cc3cc[nH]c(=O)c3c(Nc3ccc(CCN4CCCN(C)CC4)cc3)n2)cn1 [compound 436]
The IC50 of the first is 3.4-fold higher: 0.474 µM for the first, 0.14 µM for the second.

Compared with `Cc1ccnc(Nc2cc3ccn(CCN4CCOCC4)c(=O)c3c(NC(C)C)n2)c1` [compound 315], `CC(C)Nc1nc(Nc2cnccn2)cc2ccn(CCN3CCOCC3)c(=O)c12` [compound 320] is 1.9-fold lower in IC50: 0.381 µM for the first, 0.2 µM for the second.

First: Cc1cnc(Nc2cc3cc[nH]c(=O)c3c(Nc3ccc(C4CCN(C5CC5)CC4)c(C)c3)n2)cn1 [compound 248]
Second: Cc1ccnc(Nc2cc3cc[nH]c(=O)c3c(NCCC3CCCN3C)n2)c1 (centres unmarked) [compound 562]
The IC50 of the first is 7-fold higher: 2.02 µM for the first, 0.288 µM for the second.

Going from `Cc1ccnc(Nc2cc3cc[nH]c(=O)c3c(NCc3ccccc3)n2)c1` [compound 591] to `CNC(=O)c1ccc(Nc2nc(Nc3cc(C)ccn3)cc3ccn(C)c(=O)c23)cc1` [compound 342], the IC50 falls from 5.68 µM to 0.222 µM (26-fold).

Compared with `Cc1nc(-c2cc3cc[nH]c(=O)c3c(Nc3ccc(N4C[C@@H](C)O[C@@H](C)C4)nc3)n2)cnc1N` [compound 19], `CCn1ccc2cc(Nc3cnc(C)cn3)nc(N[C@@H](C)CO)c2c1=O` [compound 394] is 1.7-fold higher in IC50: 0.222 µM for the first, 0.384 µM for the second. The first is the more potent here.

With `CCn1ccc2cc(Nc3ncccn3)nc(NC[C@H]3CC[C@H](O)C3)c2c1=O` [compound 411] the IC50 was 0.071 µM.
